{"source": "patent US20250345316A1", "about": "“METHODS OF INCREASING LYMPHOCYTE TRAFFICKING TO THE COLON BY STIMULATING RETINOIC ACID RECEPTORS AND ARYL HYDROCARBON RECEPTORS” (President and Fellows of Harvard College, priority 2024, published 2025)", "key": {"[1]": {"test_system": "OT-1 cells (antigen-specific CD8+ T cells)", "assay": "OT-1 in vivo assay (parenteral immunization): OT-1 cells in tissues by flow cytometry", "parameters": "species or system mice", "details": "for OT-1 effector cells in the colon and cecum: B6 mice, OVA+CpG s.c. day 0, Am80 500 nmol, 10-CL-BBQ 164 nmol s.c. day 0, 1, 2; for OT-1 effector cells in the colon and cecum / OT-1 cells in the small intestine: day 7; for OT-1 cells in the small intestine: same regimen; for CD8+ T cell trafficking to the small intestine / tissue residence: supplementation", "protocol": "OT-1 in vivo Assay (Parenteral Immunization): Mice were adoptively transferred with OT-1 cells, and subsequently immunized with […] chicken ovalbumin (OVA) and an adjuvant CpG-1668 (0.5 nmol). On day 0.1 and 2, mice were injected s.c. with solvent control (DMSO, 10% v/v in PEG-400), retinoic acid receptor agonist Am80 (500 nmol in PEG-400), AHR agonist 10-CL-BBQ (164 nmol in PEG-400), or Am80+10-CL-BBQ (same dose). At timepoints defined by individual experiments, tissues were harvested and analyzed.\nPreparing intestinal samples for flow cytometry: Small intestine (duodenum to ileum) was dissected out and flushed. Peyer's patches and fat were removed, and the tissue was cut into 4-5 pieces, and flipped to expose the luminal surface. Colon and cecum were dissected out, flushed and cut open longitudinally.\n(§1) Cell Count and Flow Cytometry and Cell Count: For cell counting, samples were diluted and counted on a BD Accuri C6 Plus cytometer. For flow cytometry, samples were run on a Beckman CytoFLEX cytometer, and analysis was done using Flow Jo software V10.\nThe experimental approach is shown in the schematic in FIG. 2. Antigen-specific CD8+ T cells (OT-1 cells, recognizing a peptide within the chicken ovalbumin protein) were adoptively transferred (1×10^5 cells) to B6 recipient mice on day −1, and B6 recipients were vaccinated subcutaneously (s.c.) on day 0 with 100 μg chicken ovalbumin (OVA) and an adjuvant CpG-1668 (0.5 nmol). On day 0.1 and 2, mice were injected subcutaneously with solvent control (DMSO, 10% v/v in PEG-400), retinoic acid receptor agonist Am80 (500 nmol in PEG-400), AHR agonist 10-CL-BBQ (164 nmol in PEG-400), or Am80+10-CL-BBQ (same dose). Tissues were harvest on day 7 and analyzed by flow cytometry."}, "[2]": {"test_system": "α4β7, GPR15 and CCR9 on OT-1 cells", "assay": "OT-1 in vivo assay: expression of gut homing molecules on OT-1 cells in blood and draining lymph nodes", "parameters": "species or system mice", "details": "for GPR15 on OT-1 cells (effector CD8+ T cells): day 4 blood, L-KYN 500 nmol in PEG-400; for α4β7 and CCR9 expression: subcutaneous vaccination model, supplementation", "protocol": "At timepoints defined by individual experiments, tissues were harvested and analyzed.\nas §1\nThe experimental approach is shown in the schematic in FIG. 2. […] Tissues were harvest on day 7 and analyzed by flow cytometry."}, "OT-1 cells": {"test_system": "OT-1 cells", "assay": "Short-term competitive homing of OT-1 cells", "type": "in vivo, mice", "details": "5×10^6 cells from each treatment transferred into naïve B6 recipients; without Am80", "protocol": "Short-term Competitive Homing: OT-1 cells, either in vitro or in vivo generated, were distinguished by congenic markers CD45.1/CD45.2, mixed at around 1:1 ratio and adoptively transferred into recipient animals. At 20-24 hours post transfer, mice were sacrificed, and tissues were harvested for analysis. Ratio of transferred cells were obtained, and homing index was calculated.\nBriefly, two GFP+OT-1 transgenic mice with or without expression of the congenic marker CD45.1 were used per experiment (mouse A and mouse B), and OT-1 cells were isolated from their spleens. OT-1 cells from different mice ([A] and [B]) were subjected to different treatments (A and B, including culture, genetic manipulation, in vivo activation and re-harvesting, etc). The cells were then mixed at an around 1:1 ratio and injected into a B6 recipient (GFP−). At timepoints (determined for each experiment), with or without additional in vivo treatments (determined by each experiment), tissues were analyzed by flow cytometry and the ratio of [A] and [B] in each tissue was obtained. Homing index and normalized homing index (see equation) were calculated.\nAs a supplementation to in vitro approaches, the gut homing capacity of in vivo generated effector T cells was tested in the disclosed vaccination strategy. […]"}, "AHR": {"test_system": "AHR", "assay": "CRISPR knockout of AHR in OT-1 cells, co-transfer with control cells", "type": "in vivo, mouse", "description": "CRISPR Knockout of AHR and GPR15: Naïve GFP+OT-1 cells were isolated with mouse CD8a+ T Cell Isolation Kit (Miltenyi) and nucleofected with Cas9 protein, complexed with either control (CD19) gRNA, or GPR15 gRNA. gRNAs were designed using Synthego online tool and synthesized by Synthego. The procedure was done using a Lonza nucleofector, with the P3 Primary cell Kit. Cells were distinguished based on expression of congenic marker CD45.1 and co-transferred into recipient mice. Recipient mice were immunized, and tissues were analyzed at different timepoints.\nLoss of AHR abrogated ligand-depended upregulation of GPR15. Naïve GFP+OT-1 cells were nucleofected with Cas9 protein, complexed with either control (CD19) gRNA, or AHR gRNA. Transfected cells were distinguished based on expression of congenic marker CD45.1 and co-transferred into recipient mice. Recipient mice were immunized with OVA+CpG, and injected with DMSO, Am80, 10-CL-BBQ or Am80+10-CL-BBQ (same dose and regimen as previously described). Flow cytometry plots, gated on OT-1 cells. […] Quantification is shown of GPR15+, α4β7+ and CCR9+ cells, percentage out of OT-1 cells in respective groups (FIGS. 21B-21D). […] Control cells used were CD45.1^− and […] cells were CD45.1+."}, "OT-1 CD8+ T cells": {"test_system": "OT-1 CD8+ T cells", "assay": "OT-1 in vitro culture to generate GPR15+CD8+ T cells", "type": "cell-based, mouse", "details": "day 4 post activation", "protocol": "OT-1 in vitro Culture: OT-1 splenocytes were pulsed for 1 hour with 1 μg OVA peptide (257-264) and cultured overnight in complete T cell (RPMI) media. The next day, CD8+ T cells were isolated using mouse CD8a+ T Cell Isolation Kit (Miltenyi) and cultured with various treatment conditions.\nVarious treatment conditions were tested for the efficiency of generating GPR15^+CD8^+ T cells. OT-1 splenocytes were pulsed for 1 hour with 1 μg OVA peptide (257-264) and cultured overnight in complete RPMI media. The next day, CD8^+ T cells were isolated using mouse CD8a^+ T Cell Isolation Kit (Miltenyi) and cultured with various treatment conditions. […] 4 days post activation. Plots were pre-gated on CD8a^+ cells. […] GPR15^+ T cells peaked around 4-5 days post activation. Cells were treated with IL-2+10-CL-BBQ+TGF-β1."}, "[3]": {"test_system": "OT-1 cells (antigen-specific CD8+ T cells)", "assay": "OT-1 in vivo assay (parenteral immunization): OT-1 cells in tissues by flow cytometry", "parameters": "species or system mice"}, "[4]": {"details": "10 nM ATRA added concurrently with IL-2+TGF-β1+10-CL-BBQ"}}}
{"smiles": "O=c1c2cccc3cccc(c32)c2nc3ccc(Cl)cc3n12", "note": "[10-CL-BBQ, 10-Chloro-7H-benzimidazo[2,1-a]benzl[de]isoquinolin-7-one]", "values": [{"measurement": "OT-1 effector cells in the colon and cecum", "setting": "[1]", "result": "some increase"}, {"measurement": "OT-1 cells in the small intestine", "setting": "[1]", "result": "no effect"}, {"measurement": "GPR15 expression on OT-1 cells in the blood", "setting": "[2]; blood, day 4-6", "result": "most robust"}, {"measurement": "GPR15 expression on CD8a+ cells of the recipient (mostly naïve)", "setting": "[2]; blood, day 5", "result": "did not affect"}, {"measurement": "GPR15 on adoptively transferred OT-1 cells (effector phase)", "setting": "[2]; blood, day 5", "result": "up-regulated"}, {"measurement": "GPR15 on OT-1 cells (effector CD8+ T cells)", "setting": "[2]", "result": "significantly up-regulated"}, {"measurement": "trafficking of in vitro cultured cells to small and large intestine", "setting": "OT-1 cells", "result": "did not constitute trafficking"}, {"measurement": "GPR15 on OT-1 cells nucleofected with AHR gRNA", "setting": "AHR; day 5 blood, compared to control gRNA cells", "result": "not 10-CL-BBQ dependent upregulation"}, {"measurement": "representation of AHR KO cells in the colon and cecum (ratio [Ctrl] to [AHR knockout], normalized to spleen)", "setting": "AHR; day 7 post immunization", "result": "under-represented"}]}
{"smiles": "CC1=C(/C=C/C(C)=C/C=C/C(C)=C/C(=O)O)C(C)(C)CCC1", "note": "[ATRA, 3,7-Dimethyl-9-(2,6,6-trimethyl-1-cyclohexen-1-yl)-2E,4E,6E,8E,-nonatetraenoic acid]", "values": [{"measurement": "CD8+ T cell trafficking to the small intestine", "setting": "[1]; subcutaneous vaccination model", "result": "increased"}, {"measurement": "tissue residence", "setting": "[1]; subcutaneous vaccination model", "result": "promoted"}, {"measurement": "α4β7 and CCR9 expression", "setting": "[2]", "result": "increased"}, {"measurement": "α4β7^high GPR15+ population", "setting": "OT-1 CD8+ T cells; 10 nM ATRA added 24-48 hours after IL-2+TGF-β1+10-CL-BBQ", "result": "enabled the generation of an α4β7^high GPR15+ population"}, {"measurement": "GPR15 expression", "setting": "OT-1 CD8+ T cells; [4]", "result": "completely abrogated"}, {"measurement": "trafficking phenotype (α4β7, CCR9)", "setting": "OT-1 CD8+ T cells; [4]", "result": "skewed cells towards a small intestine trafficking phenotype"}]}
{"smiles": "CC1(C)CCC(C)(C)c2cc(NC(=O)c3ccc(C(=O)O)cc3)ccc21", "note": "[Am80, 4-[[(5,6,7,8-Tetrahydro-5,5,8,8-tetramethyl-2-naphthalenyl)amino]carbonyl]benzoic acid]", "values": [{"measurement": "OT-1 effector cells in the colon and cecum", "setting": "[1]", "result": "some increase"}, {"measurement": "OT-1 cells in the small intestine", "setting": "[1]", "result": "increased"}, {"measurement": "optimal trafficking to the large intestine", "setting": "[1]; subcutaneous vaccination model", "result": "not sufficient"}, {"measurement": "CD8+ T cell trafficking to the small intestine", "setting": "[1]; subcutaneous vaccination model", "result": "increased"}, {"measurement": "tissue residence", "setting": "[1]; subcutaneous vaccination model", "result": "promoted"}, {"measurement": "α4β7 and CCR9 expression", "setting": "[2]", "result": "increased"}]}
{"smiles": "Cc1ccccc1N=Nc1ccc(NC(=O)c2ccnn2C)c(C)c1", "note": "[CH-223191]", "values": [{"measurement": "effects of 10-CL-BBQ on colon trafficking", "setting": "[3]; 250 nmol in PEG-400, given with 10-CL-BBQ", "result": "antagonized"}]}
{"smiles": "Nc1ccccc1C(=O)C[C@H](N)C(=O)O", "note": "[L-KYN, L-kynurenine]", "values": [{"measurement": "colon trafficking (OT-1 cells out of total CD8+ T cells)", "setting": "[1]; alone", "result": "did not increase"}, {"measurement": "colon trafficking (OT-1 cells out of total CD8+ T cells)", "setting": "[1]; in combination with Am80", "result": "did not increase"}, {"measurement": "GPR15 on OT-1 cells (effector CD8+ T cells)", "setting": "[2]", "result": "did not increase"}]}
{"smiles": "FC(F)(F)c1ccc(Nc2nccc(-c3cccc(Cl)c3)n2)cc1", "note": "[VAF347]", "values": [{"measurement": "colon trafficking (OT-1 cells out of total CD8+ T cells)", "setting": "[3]; 250 nmol in PEG-400", "result": "increased colon trafficking but at a lower efficacy than 10-CL-BBQ"}]}
